# Data as given in PubChem BioAssay AID602168 (The Scripps Research Institute Molecular Screening Center, 2012).
# Activity calls are given as the source filed them. The rule behind the calls is not given here.
# Target: Nuclear receptor coactivator 1 (Homo sapiens) (UniProt Q15788)
# Assay: NCOA1 reporter inhibition potency – cell-based, luminescence, counter-screen for SRC3 inhibitor project, dose response (AID 602168)
# Conditions: Cell-based SRC1 luciferase reporter
# Sequence of Nuclear receptor coactivator 1 (Homo sapiens) (Q15788 whole entry, looked up): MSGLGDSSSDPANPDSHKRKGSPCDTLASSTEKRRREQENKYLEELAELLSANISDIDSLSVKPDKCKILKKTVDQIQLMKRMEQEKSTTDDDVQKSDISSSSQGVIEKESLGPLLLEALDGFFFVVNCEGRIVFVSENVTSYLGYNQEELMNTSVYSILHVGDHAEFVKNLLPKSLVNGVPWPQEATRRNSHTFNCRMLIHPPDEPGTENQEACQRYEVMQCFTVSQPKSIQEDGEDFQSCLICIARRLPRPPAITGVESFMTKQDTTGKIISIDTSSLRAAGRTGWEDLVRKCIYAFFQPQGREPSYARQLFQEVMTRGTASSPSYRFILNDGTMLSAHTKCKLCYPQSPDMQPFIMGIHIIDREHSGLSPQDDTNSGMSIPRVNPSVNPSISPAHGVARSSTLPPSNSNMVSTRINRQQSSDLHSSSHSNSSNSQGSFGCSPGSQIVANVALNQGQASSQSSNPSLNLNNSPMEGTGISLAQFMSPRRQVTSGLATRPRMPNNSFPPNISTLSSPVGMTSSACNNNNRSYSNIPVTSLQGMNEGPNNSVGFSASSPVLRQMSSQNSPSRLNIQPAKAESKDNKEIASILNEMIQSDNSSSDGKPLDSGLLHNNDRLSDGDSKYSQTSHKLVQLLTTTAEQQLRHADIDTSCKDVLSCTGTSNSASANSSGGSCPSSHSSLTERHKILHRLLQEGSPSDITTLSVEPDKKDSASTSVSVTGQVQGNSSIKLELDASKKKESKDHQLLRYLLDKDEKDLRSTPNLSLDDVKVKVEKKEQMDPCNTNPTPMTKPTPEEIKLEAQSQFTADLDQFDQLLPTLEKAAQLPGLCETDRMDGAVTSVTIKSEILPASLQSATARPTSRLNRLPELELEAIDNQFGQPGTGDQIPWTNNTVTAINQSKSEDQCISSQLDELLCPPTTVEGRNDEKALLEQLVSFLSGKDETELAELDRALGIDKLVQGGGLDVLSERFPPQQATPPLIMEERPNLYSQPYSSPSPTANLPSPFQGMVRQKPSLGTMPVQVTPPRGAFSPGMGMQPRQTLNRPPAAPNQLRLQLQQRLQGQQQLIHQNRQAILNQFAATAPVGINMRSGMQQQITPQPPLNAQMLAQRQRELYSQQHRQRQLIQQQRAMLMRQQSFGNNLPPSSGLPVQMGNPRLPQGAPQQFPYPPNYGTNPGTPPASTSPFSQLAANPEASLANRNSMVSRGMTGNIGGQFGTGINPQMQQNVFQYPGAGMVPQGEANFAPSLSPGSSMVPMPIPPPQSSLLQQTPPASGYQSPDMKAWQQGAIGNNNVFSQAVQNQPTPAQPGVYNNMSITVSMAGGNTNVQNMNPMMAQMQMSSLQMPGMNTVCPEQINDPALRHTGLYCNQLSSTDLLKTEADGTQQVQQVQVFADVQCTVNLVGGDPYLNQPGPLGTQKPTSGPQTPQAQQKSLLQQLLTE
row,Structure (SMILES),IC50
1,CN(C)c1ccc(CNC(=O)CCNS(=O)(=O)c2cc(Br)cnc2N)cc1,inactive
2,Cc1ccc(/C=C2\SC(=S)N(CCCC(=O)NC3CCCC3)C2=O)cc1,3.26 µM
3,CC(C)(C)C(=O)Nc1ccc(N=Nc2ccccc2)cc1,> 35.9 µM (inactive)
4,Cc1cc(/C=C2\Cc3ccccc3C2=O)c(C)n1-c1ccccc1,inactive
5,CNC(=O)c1cccn(Cc2ccc(C(F)(F)F)cc2)c1=O,> 35.8 µM (inactive)
6,COc1ccc(/C=C2\CN(Cc3ccccc3)C/C(=C\c3ccc(OC)c(O)c3)C2=O)cc1O,> 35.9 µM (inactive)
7,Cc1ccc(N=Nc2ccc3ccccc3c2O)cc1,> 35.9 µM (inactive)
8,CN1C(=O)C2(C(C#N)=C(N)N(c3cc(Cl)cc(Cl)c3)C3=C2C(=O)CCC3)c2ccccc21 (centres undefined),> 35.9 µM (inactive)
9,CC(C)N(c1ccccc1)c1ccc(NC(=O)CCl)cc1,> 35.8 µM (inactive)
10,C=CCOn1c(C)c(C(C)=O)c2c3nonc3ccc21,9.06 µM
11,O=C(CCl)Nc1cccc(-c2cnc3ccccc3n2)c1,inactive
12,COc1ccc(Nc2ccncc2[N+](=O)[O-])cc1,9.17 µM
13,CCOc1cc(/C=C2\CCC/C(=C\c3cc(Cl)c(O)c(OCC)c3)C2=O)cc(Cl)c1O,> 35.8 µM (inactive)
14,Cc1ccc(N=c2c([N+](=O)[O-])nn(-c3ccc4c(c3)OCCO4)n2O)cc1F,> 35.9 µM (inactive)
15,COC(=O)c1cc(S(=O)(=O)NCCc2ccc(Cl)cc2)c[nH]1,inactive
16,Cn1cnc([N+](=O)[O-])c1Sc1nc(N)nc2c1ncn2C1OC(CO)C(O)C1O (centres undefined),> 35.9 µM (inactive)
17,COc1cccc(F)c1C(C[N+](=O)[O-])c1c(N)n(C)c(=O)n(C)c1=O (centres undefined),inactive
18,CCCCN1C=CC(=C2C(=O)c3ccccc3C2=O)C=C1,> 35.9 µM (inactive)
19,O=c1[nH]cnc2c1nnn2C1OC(CO)C(O)C1O (centres undefined),> 35.8 µM (inactive)
20,c1ccc(-c2nnc(-c3ccccn3)nc2NC2CCCCC2)cc1,4.38 µM
21,COc1cc2c(c(OC)c1OC)-c1ccc(SC)c(=O)cc1C(NC=O)CC2 (centres undefined),> 35.9 µM (inactive)
22,COc1ccc2[nH]c(=O)c(CN(CCN3CCCC3)C(=O)Nc3ccccc3Cl)cc2c1,inactive
23,COc1ccc(OC)c(N/C=C/C(=O)c2ccccc2)c1,inactive
24,Cc1nc(N2CCC(C(N)=O)CC2)c2c(-c3cccs3)csc2n1,8.33 µM
25,O=C(CCl)N(c1ccccc1)C1CCCCC1,inactive
26,O=C(N/N=C/c1cc(Br)c(Br)s1)c1ccncc1,inactive

row,Structure (SMILES),IC50
1,c1cc2[nH]snc2c2nc(C3CC3)nc12,inactive
2,CCCc1c(C)nc2ccccc2c1SCCC#N,9.45 µM
3,CN(C)c1ccc(C(=S)Nc2ccccc2)cc1,> 35.9 µM (inactive)
4,Nc1ncccc1C(=O)OCC(=O)N1CCN(S(=O)(=O)c2ccc(Cl)cc2)CC1,inactive
5,CCOC(=O)C(C(C)=O)c1c(Br)c(O)c(O)c2c(C(=O)c3ccc(C)cc3)coc12 (centres undefined),> 35.9 µM (inactive)
6,O=S(=O)(/C(=C\c1ccc(C(F)(F)F)cc1)c1nc2ccccc2[nH]1)c1ccccc1,> 12 µM (inactive)
7,Cc1ccc2nc(C(F)(F)F)c(C#N)c(N)c2c1,inactive
8,Cc1nc([N+](=O)[O-])c(Sc2nc3ccccc3n2C)n1Cc1ccccc1,> 35.9 µM (inactive)
9,Cc1ccc(-n2c(Cl)c(Cl)nc(Cl)c2=O)cc1,inactive
10,CCCS(=O)(=O)Nc1ccc(Nc2c3ccccc3nc3ccccc23)c(OC)c1,0.525 µM
11,CCn1nc(/C=C/c2ccccc2)nc2c(=O)n(C)c(=O)nc1-2,> 35.9 µM (inactive)
12,COc1cc(/C=C2\CC(C(C)(C)C)C/C(=C\c3cc(OC)c(OC)c(OC)c3)C2=O)cc(OC)c1OC (centres undefined),> 35.9 µM (inactive)
13,O=C(Nc1ccc(OCC(=O)N2CCOCC2)cc1)c1cncc(Br)c1,inactive
14,CCOC(=O)c1cc2sccc2n1CC(=O)N1CCc2ccccc21,> 35.9 µM (inactive)
15,CN1C(=O)C2(C(C#N)=C(N)N(c3cc(Cl)cc(Cl)c3)C3=C2C(=O)CC(C)(C)C3)c2ccccc21 (centres undefined),> 35.9 µM (inactive)
16,Nc1nccc(-c2ccc(-n3cnc4ccccc43)cc2)n1,2.23 µM
17,Cc1nc(N)nc(N)c1-c1ccc(Cl)c(Cl)c1,5.41 µM
18,CCc1ccc(-c2nc(CSCC(=O)NCc3ccco3)c(C)o2)cc1,> 35.9 µM (inactive)
19,CC(C)(C)n1ncc2c(=O)n(CC(=O)OCc3ccccc3)cnc21,> 35.9 µM (inactive)
20,CN(C)/C=C/C(=O)c1ccc2noc(-c3ccccc3)c2c1,inactive
21,CC(=O)Nc1ccc(SCC(=O)c2cc(C)n(-c3ccccc3)c2C)cc1,> 35.9 µM (inactive)
22,N#Cc1c2ccc(O)cc2n2ccccc12,inactive
23,Nc1nc2c(nnn2C2CC(O)C(CO)O2)c(=O)[nH]1 (centres undefined),> 35.9 µM (inactive)
24,COc1cc2[nH]c3c(Cl)ncnc3c2cc1OC,> 35.9 µM (inactive)
25,NS(=O)(=O)c1ccc(Sc2nc3ccccc3s2)c([N+](=O)[O-])c1,> 35.9 µM (inactive)
26,CCOc1cc(C(N)=O)cc(Br)c1OC,inactive

row,Structure (SMILES),IC50
1,S=C(Nc1ccccc1)Nc1ccc(OCc2ccc(Cl)cc2Cl)cc1,inactive
2,Cc1cccc(NC(=O)c2cc(Cl)ccc2[N+](=O)[O-])c1,inactive
3,CCOc1ccc(-c2cc(C)n3nc(C(N)=O)cc3n2)cc1,inactive
4,CCOc1ccc(/C=C2\SC(=S)N(CCC(=O)O)C2=O)cc1,9.2 µM
5,COc1cc(/C=N/NC(N)=S)cc(Br)c1OCc1ccccc1F,inactive
6,COc1ccc(COC(=O)C2=C(C)NC(=O)NC2c2ccc(F)cc2)cc1 (centres undefined),inactive
7,C[C@@H](C(=O)Nc1ccc2c(c1)OCCO2)n1c(=O)[nH]c2ccccc2c1=O,> 35.9 µM (inactive)
8,COc1cc2c(ccc3cc(OC)c(OC)c(O)c32)cc1O,inactive
9,O=C(CCCc1nc(-c2ccccc2Cl)no1)NC1CCCC1,inactive
10,COC(=O)c1c(C)n(-c2ccc(OC)cc2)c2ccc(O)cc12,8.12 µM
11,CN(Cc1cnc2nc(N)nc(N)c2n1)c1ccc(C(=O)N[C@@H](CCC(=O)O)C(=O)O)cc1,> 35.9 µM (inactive)
12,C#CC(=O)N(c1cc(OC)ccc1OC)C(C(=O)NC1CCCC1)c1cccs1 (centres undefined),> 35.9 µM (inactive)
13,CC(=O)c1ccc(Nc2c3c(nc4ccccc24)CCCC3)cc1,> 35.9 µM (inactive)
14,CCOc1ccccc1-n1c(SCC(=O)Nc2ccccc2C(=O)O)nc2ccccc2c1=O,> 35.9 µM (inactive)
15,COc1cc2oc(=O)cc(-c3ccc(-c4ccc(CO)cc4)cc3)c2c(OC)c1OC,8.05 µM
16,C=CS(=O)(=O)N(Cc1ccc(Cl)c(Cl)c1)C[C@@H](O)CO,> 35.8 µM (inactive)
17,Cc1ccc(-n2c(C)cc(C(=O)COc3cccnc3[N+](=O)[O-])c2C)cc1,> 35.9 µM (inactive)
18,NC(=S)N/N=C1\CCSc2ccc(Cl)cc21,> 35.8 µM (inactive)
19,Nc1nc(CCl)nc(Nc2cccc3ccccc23)n1,inactive
20,c1ccc2c(c1)Nc1ccncc1S2,inactive
21,Cc1nc2c(-c3ccc(Cl)cc3)cnn2c(N)c1-c1ccc(F)cc1,> 35.9 µM (inactive)
22,O=C(Nc1nc2cc3c(cc2s1)OCCO3)C1=COCCO1,inactive
23,CS(=O)(=O)c1ccc(Sc2nc3ccccc3s2)c([N+](=O)[O-])c1,> 35.9 µM (inactive)
24,Cc1ccc(C2=NN(C(=O)CCl)C(c3cccs3)C2)o1 (centres undefined),inactive
25,COC(=O)c1cccc2c1-c1ccccc1/C2=N/O,6.3 µM
26,CCOC(=O)C(=CNc1ccc(NC2=NCC(C)S2)cc1)C(=O)OCC (centres undefined),> 35.8 µM (inactive)

row,Structure (SMILES),IC50
1,Cc1cc(C(=O)COC(=O)C2=COCCO2)c(C)n1-c1ccccc1,inactive
2,Fc1ccc(CSc2nnc(-c3ccncc3)o2)cc1,3.43 µM
3,CCn1c2ccccc2c2cnc(N=CN(C)C)c(C#N)c21,inactive
4,C=CCOc1ccc(/C=C2\SC(=S)N(CCC(=O)O)C2=O)cc1,6.96 µM
5,CCn1ccnc1CN(C)Cc1cn[nH]c1-c1ccc(OC)c(F)c1,9.9 µM
6,O=C(CC1CS(=O)(=O)CC1CC(=O)Nc1ccc2c(c1)OCCO2)Nc1ccc2c(c1)OCCO2 (centres undefined),> 35.9 µM (inactive)
7,COc1cccc(/C=N/Nc2cc(-n3nc(C)cc3-c3ccccc3)ncn2)c1O,inactive
8,CC(=O)OCCN1c2ccccc2Sc2cnccc21,inactive
9,Cc1ccc(/C=C2/SC(=S)N(CCCC(=O)Nc3ccc(O)cc3)C2=O)cc1,> 35.9 µM (inactive)
10,O=C(CCl)NC(Cc1ccccc1)c1ccccc1 (centres undefined),inactive
11,O=[N+]([O-])c1cccc2c1ccc1ncccc12,inactive
12,CN(C)c1ccc(/C=C/c2ccc3ccccc3n2)cc1,inactive
13,CN(Cc1cnc2nc(N)nc(N)c2n1)c1ccc(C(=O)NC(CCC(=O)O)C(=O)O)cc1 (centres undefined),> 35.9 µM (inactive)
14,COc1ccc(C)cc1NS(=O)(=O)c1ccc(NC(=O)CN(c2cc([N+](=O)[O-])ccc2C)S(C)(=O)=O)cc1,inactive
15,O=C(Nc1cccc(C(F)(F)F)c1)Nc1nnc([C@@H]2C[C@H](O)[C@@H](CO)O2)s1,5.71 µM
16,Cc1ncc(CO)c(/C=N/NC(=O)c2cc3c(s2)CCCC3)c1O,inactive
17,O=c1[nH]c2ccccc2n1C1CCN(C(c2cc3ccccc3o2)c2nnnn2Cc2ccccc2)CC1 (centres undefined),inactive
18,CC[C@@]1(O)C(=O)OCc2c1cc1n(c2=O)Cc2cc3c(NC(=O)CN)cccc3nc2-1,3.78 µM
19,O=[N+]([O-])c1ccc(N(CCO)CCO)c2c1no[n+]2[O-],inactive
20,COc1ccc(-c2cn[nH]c2-c2ccc(OC)cc2O)cc1,8.83 µM
21,O=c1[nH]c2ccccc2n1C1CCN(C(c2ccccc2)c2nnnn2-c2ccc3c(c2)OCCO3)CC1 (centres undefined),inactive
22,Cc1ccc(C(=O)Nc2cnc3ccccc3c2)cc1,inactive
23,O=C(OCCC12CC3CC(CC(C3)C1)C2)c1ccc(NCc2cc(O)ccc2O)cc1,inactive
24,Brc1ccc2ncc3ccccc3c2c1,inactive
25,NC(=O)c1cc(Sc2ccccc2)nc2ccccc12,inactive
26,C=C1C(=O)[C@]23C[C@H]1CCC2[C@@]1(C)C(C[C@@H]3O)[C@](C)(C(=O)OC)CC[C@@H]1O (some centres undefined),inactive
